Results on 3 compounds are retold here after ChEMBL document CHEMBL3627608, “Crystal structures of human RIP2 kinase catalytic domain complexed with ATP-competitive inhibitors: Foundations for understanding inhibitor selectivity” (Bioorg Med Chem, 2015).

The target of experiment [1] is Mitogen-activated protein kinase kinase kinase 20 (Homo sapiens) (UniProt Q9NYL2). As to the kind of experiment: Inhibition of ZAK (unknown origin) at 10 uM after 120 mins P33 radiolabeled kinase activity assay.
Experiment [2] addresses cAMP-dependent protein kinase catalytic subunit beta (Homo sapiens) (UniProt P22694). As to the kind of experiment: Inhibition of PKAcbeta (unknown origin) at 10 uM after 120 mins P33 radiolabeled kinase activity assay.
In experiment [3] the target is Interleukin-1 receptor-associated kinase 1 (Homo sapiens) (UniProt P51617). As to the kind of experiment: Inhibition of IRAK1 (unknown origin) at 10 uM after 120 mins P33 radiolabeled kinase activity assay.
Interleukin-1 receptor-associated kinase 1 (Homo sapiens), sequence (P51617 whole entry, looked up): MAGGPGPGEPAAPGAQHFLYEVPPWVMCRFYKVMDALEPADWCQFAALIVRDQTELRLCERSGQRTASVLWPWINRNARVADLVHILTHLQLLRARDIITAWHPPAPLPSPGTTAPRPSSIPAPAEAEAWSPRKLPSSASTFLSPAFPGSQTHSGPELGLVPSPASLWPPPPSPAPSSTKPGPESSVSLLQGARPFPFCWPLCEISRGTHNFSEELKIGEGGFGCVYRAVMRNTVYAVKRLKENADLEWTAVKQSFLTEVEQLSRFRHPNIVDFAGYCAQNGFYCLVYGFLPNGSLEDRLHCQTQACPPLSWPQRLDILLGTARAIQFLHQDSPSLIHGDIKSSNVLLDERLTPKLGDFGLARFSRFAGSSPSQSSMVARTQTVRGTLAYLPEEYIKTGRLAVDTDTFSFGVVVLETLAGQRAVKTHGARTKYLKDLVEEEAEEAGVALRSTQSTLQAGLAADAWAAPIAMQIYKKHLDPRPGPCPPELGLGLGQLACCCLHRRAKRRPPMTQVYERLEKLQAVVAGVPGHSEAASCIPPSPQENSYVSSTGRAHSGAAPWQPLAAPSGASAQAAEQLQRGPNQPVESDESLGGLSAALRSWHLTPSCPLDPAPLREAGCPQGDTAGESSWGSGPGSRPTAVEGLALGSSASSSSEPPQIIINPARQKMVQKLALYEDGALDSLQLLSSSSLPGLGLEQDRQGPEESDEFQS
Experiment [4] deals with T1, Ephrin type-B receptor 4 (Homo sapiens) (UniProt P54760).
T1 sequence (whole entry): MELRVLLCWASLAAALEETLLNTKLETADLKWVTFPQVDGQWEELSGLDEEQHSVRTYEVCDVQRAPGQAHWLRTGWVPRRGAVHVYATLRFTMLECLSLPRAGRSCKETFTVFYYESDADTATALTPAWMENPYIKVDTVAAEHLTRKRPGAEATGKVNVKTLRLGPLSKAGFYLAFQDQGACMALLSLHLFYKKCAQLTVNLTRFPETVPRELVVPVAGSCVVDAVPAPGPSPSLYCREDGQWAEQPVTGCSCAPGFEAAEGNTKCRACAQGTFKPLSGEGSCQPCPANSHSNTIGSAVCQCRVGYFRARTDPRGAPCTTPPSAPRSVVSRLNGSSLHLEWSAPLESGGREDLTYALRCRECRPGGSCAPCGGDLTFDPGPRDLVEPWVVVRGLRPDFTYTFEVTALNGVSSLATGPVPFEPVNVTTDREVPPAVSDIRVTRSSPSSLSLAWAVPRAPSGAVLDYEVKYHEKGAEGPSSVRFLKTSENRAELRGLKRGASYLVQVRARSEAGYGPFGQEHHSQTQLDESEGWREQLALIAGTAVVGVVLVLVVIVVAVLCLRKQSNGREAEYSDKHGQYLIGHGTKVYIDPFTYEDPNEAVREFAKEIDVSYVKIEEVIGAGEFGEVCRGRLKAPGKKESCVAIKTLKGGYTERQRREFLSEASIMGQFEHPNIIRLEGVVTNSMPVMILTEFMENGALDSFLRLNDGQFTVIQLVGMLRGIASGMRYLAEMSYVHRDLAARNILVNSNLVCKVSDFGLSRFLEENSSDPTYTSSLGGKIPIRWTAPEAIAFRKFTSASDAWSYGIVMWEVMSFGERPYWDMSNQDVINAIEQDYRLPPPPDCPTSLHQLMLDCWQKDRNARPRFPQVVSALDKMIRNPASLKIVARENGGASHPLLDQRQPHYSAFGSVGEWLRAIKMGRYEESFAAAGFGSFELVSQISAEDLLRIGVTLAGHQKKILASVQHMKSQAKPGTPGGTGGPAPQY
As to the kind of experiment: Inhibition of EPHB4 (unknown origin) at 10 uM after 120 mins P33 radiolabeled kinase activity assay.

Experiment [5] deals with Vascular endothelial growth factor receptor 2 (Homo sapiens) (UniProt P35968). As to the kind of experiment: Inhibition of KDR (unknown origin) at 10 uM after 120 mins P33 radiolabeled kinase activity assay.
Vascular endothelial growth factor receptor 2 (Homo sapiens), sequence (P35968 whole entry): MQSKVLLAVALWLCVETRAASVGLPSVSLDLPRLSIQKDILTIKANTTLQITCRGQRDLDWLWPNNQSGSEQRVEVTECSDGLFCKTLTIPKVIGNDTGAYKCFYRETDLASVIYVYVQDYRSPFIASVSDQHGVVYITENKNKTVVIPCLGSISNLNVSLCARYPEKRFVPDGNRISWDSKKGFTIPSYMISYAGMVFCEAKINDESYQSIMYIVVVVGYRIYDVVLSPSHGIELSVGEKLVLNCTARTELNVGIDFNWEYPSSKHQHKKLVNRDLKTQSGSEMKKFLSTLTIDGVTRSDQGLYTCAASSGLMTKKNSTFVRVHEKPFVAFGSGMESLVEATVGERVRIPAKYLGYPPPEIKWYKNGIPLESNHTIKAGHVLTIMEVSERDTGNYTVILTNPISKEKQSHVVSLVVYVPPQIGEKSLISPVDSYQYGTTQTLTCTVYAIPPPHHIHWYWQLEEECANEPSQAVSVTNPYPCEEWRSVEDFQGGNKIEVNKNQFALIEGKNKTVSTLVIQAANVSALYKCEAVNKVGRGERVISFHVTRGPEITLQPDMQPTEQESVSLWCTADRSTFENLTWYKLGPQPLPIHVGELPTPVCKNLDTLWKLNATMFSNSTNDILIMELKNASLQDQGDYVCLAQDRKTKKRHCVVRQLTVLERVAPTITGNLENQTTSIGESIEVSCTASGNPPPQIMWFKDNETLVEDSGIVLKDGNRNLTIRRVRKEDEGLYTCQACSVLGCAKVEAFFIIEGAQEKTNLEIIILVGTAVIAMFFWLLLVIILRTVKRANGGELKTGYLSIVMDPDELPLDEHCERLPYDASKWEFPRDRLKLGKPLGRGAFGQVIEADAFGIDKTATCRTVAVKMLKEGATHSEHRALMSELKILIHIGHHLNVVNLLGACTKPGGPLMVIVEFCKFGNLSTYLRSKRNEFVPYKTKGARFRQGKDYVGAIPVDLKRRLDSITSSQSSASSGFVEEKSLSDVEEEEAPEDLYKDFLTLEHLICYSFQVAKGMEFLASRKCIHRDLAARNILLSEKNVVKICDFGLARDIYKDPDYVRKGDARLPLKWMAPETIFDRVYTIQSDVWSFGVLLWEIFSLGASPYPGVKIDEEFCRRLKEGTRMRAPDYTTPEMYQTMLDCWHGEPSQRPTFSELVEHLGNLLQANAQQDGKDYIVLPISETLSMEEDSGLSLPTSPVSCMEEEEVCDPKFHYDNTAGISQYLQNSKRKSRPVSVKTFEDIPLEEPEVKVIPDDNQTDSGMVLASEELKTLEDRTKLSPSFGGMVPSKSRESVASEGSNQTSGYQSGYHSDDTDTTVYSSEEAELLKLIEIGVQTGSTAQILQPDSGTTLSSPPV
Experiment [6] deals with T2, Serine/threonine-protein kinase ULK2 (Homo sapiens) (UniProt Q8IYT8).
T2 sequence (whole entry): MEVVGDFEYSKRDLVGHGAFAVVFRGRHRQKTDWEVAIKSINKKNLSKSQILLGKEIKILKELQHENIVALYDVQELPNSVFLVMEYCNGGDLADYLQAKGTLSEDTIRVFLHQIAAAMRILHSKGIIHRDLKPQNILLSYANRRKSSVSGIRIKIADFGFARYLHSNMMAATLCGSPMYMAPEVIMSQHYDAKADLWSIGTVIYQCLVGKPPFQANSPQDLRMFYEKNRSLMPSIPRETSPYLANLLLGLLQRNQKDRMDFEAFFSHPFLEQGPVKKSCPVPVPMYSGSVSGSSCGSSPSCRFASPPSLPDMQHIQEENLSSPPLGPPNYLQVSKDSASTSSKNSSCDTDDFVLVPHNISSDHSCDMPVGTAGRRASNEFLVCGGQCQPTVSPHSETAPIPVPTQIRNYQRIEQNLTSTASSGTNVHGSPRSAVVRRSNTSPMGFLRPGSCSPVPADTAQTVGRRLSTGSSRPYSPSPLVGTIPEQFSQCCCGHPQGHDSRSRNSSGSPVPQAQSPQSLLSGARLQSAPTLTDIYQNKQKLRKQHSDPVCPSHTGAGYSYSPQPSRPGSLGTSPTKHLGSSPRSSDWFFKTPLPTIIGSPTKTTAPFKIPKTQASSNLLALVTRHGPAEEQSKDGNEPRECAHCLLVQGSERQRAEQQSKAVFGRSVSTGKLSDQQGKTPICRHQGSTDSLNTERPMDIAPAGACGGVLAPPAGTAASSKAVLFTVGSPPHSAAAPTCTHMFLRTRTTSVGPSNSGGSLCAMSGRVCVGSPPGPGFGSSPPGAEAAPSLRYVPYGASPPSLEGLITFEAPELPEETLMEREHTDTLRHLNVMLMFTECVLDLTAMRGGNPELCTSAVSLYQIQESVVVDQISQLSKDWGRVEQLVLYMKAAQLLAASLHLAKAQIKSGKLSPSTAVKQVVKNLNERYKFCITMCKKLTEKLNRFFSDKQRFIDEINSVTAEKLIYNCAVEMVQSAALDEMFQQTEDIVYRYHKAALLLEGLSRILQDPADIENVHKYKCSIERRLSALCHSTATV
As to the kind of experiment: Inhibition of ULK2 (unknown origin) at 10 uM after 120 mins P33 radiolabeled kinase activity assay.

For experiment [7], the target named is Receptor-interacting serine/threonine-protein kinase 3 (Homo sapiens) (UniProt Q9Y572). As to the kind of experiment: Inhibition of RIPK3 (unknown origin) at 10 uM after 120 mins P33 radiolabeled kinase activity assay.
Receptor-interacting serine/threonine-protein kinase 3 (Homo sapiens), sequence (Q9Y572 whole entry, looked up): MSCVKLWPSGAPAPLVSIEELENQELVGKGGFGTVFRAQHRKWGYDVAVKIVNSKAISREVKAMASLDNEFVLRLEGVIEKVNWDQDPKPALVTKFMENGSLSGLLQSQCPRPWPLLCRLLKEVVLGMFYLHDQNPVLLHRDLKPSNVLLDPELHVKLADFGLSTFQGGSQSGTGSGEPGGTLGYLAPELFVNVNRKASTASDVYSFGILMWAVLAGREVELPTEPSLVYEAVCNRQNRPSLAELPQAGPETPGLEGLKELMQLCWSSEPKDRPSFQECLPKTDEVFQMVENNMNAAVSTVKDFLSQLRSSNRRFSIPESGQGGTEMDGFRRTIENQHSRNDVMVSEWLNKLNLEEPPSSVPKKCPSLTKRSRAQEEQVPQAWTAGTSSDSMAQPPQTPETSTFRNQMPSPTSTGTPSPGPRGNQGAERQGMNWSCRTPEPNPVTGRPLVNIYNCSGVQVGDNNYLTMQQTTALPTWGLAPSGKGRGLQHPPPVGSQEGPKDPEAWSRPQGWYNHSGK

Mitogen-activated protein kinase kinase kinase 20 (Homo sapiens), sequence (Q9NYL2 2-800 limits assumed): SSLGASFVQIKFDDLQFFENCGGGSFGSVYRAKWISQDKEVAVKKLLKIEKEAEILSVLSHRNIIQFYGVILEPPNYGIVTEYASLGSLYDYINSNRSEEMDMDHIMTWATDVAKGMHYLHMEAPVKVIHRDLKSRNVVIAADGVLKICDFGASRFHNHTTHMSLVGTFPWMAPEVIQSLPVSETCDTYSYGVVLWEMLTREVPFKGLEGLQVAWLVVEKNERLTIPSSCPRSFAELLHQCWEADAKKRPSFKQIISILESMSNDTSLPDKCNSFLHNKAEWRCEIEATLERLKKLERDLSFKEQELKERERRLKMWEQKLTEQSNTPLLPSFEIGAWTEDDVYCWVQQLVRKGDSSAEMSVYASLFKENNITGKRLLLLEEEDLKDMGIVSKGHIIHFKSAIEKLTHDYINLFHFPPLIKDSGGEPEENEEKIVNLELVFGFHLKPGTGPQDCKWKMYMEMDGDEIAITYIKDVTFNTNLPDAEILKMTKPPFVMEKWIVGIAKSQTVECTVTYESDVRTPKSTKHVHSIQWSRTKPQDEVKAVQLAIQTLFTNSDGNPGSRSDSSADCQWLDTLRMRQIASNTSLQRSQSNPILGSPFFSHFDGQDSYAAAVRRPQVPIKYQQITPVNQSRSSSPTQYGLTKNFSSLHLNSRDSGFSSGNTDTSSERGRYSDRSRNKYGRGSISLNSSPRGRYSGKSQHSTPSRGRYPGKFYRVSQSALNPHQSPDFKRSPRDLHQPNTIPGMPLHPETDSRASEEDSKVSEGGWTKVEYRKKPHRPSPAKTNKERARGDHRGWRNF

As a reminder, the inhibition is the relative decrease from the control value, in per cent. Regarding `CS(=O)(=O)c1cccc(Nc2nccc(-c3sc(N4CCOCC4)nc3-c3cccc(NS(=O)(=O)c4c(F)cccc4F)c3)n2)c1`, the inhibition in experiment [1] is 99.8%; in experiment [2], -0.07%; in experiment [3], 27.6%; in experiment [4], 93.8%; in experiment [5], 96.3%; in experiment [6] it was 17%. Besides, in experiment [7], the inhibition came out at 83.1%.

With `CC(C)(C)c1cc(NC(=O)Nc2ccc(Oc3ccncc3)cc2)no1`, the inhibition in experiment [1] was 99.8%; in experiment [2], 55.2%; in experiment [3], 99.1%; in experiment [4], 96%; in experiment [5], 98.6%; in experiment [6] it was -6.09%. The inhibition in experiment [7] worked out at 81.4%.

Consider `COCCNC(=O)c1ccc2c(c1)nc(-c1cnc(-c3ccc(Cl)cc3)[nH]1)n2CCOC`, for which the inhibition in experiment [1] is 38.8%; in experiment [2], -0.18%; in experiment [3], 5.62%; in experiment [4], 29.3%; in experiment [5] it was 7.13%; in experiment [6], -2.46%. Moreover, in experiment [7], the inhibition was determined as 27.6%.
